Our source for the Nav1.4/Nav1.7 and Nav1.5/Nav1.7 values is US10344060B2 (priority 2013, dated 2019).

Molecules are shown by their SMILES. Values joined by “and” are separate entries in the source; they are usually repeats but may differ in a detail not shown here. Equal values may be shown once.

The first assay deals with T1, hNav1.7 (Homo sapiens, UniProt Q15858). Description: cell-based. Format: cell-based. The following applies: ratio of PX tonic IC50 values; Table 11.
T1 sequence (Q15858 whole entry): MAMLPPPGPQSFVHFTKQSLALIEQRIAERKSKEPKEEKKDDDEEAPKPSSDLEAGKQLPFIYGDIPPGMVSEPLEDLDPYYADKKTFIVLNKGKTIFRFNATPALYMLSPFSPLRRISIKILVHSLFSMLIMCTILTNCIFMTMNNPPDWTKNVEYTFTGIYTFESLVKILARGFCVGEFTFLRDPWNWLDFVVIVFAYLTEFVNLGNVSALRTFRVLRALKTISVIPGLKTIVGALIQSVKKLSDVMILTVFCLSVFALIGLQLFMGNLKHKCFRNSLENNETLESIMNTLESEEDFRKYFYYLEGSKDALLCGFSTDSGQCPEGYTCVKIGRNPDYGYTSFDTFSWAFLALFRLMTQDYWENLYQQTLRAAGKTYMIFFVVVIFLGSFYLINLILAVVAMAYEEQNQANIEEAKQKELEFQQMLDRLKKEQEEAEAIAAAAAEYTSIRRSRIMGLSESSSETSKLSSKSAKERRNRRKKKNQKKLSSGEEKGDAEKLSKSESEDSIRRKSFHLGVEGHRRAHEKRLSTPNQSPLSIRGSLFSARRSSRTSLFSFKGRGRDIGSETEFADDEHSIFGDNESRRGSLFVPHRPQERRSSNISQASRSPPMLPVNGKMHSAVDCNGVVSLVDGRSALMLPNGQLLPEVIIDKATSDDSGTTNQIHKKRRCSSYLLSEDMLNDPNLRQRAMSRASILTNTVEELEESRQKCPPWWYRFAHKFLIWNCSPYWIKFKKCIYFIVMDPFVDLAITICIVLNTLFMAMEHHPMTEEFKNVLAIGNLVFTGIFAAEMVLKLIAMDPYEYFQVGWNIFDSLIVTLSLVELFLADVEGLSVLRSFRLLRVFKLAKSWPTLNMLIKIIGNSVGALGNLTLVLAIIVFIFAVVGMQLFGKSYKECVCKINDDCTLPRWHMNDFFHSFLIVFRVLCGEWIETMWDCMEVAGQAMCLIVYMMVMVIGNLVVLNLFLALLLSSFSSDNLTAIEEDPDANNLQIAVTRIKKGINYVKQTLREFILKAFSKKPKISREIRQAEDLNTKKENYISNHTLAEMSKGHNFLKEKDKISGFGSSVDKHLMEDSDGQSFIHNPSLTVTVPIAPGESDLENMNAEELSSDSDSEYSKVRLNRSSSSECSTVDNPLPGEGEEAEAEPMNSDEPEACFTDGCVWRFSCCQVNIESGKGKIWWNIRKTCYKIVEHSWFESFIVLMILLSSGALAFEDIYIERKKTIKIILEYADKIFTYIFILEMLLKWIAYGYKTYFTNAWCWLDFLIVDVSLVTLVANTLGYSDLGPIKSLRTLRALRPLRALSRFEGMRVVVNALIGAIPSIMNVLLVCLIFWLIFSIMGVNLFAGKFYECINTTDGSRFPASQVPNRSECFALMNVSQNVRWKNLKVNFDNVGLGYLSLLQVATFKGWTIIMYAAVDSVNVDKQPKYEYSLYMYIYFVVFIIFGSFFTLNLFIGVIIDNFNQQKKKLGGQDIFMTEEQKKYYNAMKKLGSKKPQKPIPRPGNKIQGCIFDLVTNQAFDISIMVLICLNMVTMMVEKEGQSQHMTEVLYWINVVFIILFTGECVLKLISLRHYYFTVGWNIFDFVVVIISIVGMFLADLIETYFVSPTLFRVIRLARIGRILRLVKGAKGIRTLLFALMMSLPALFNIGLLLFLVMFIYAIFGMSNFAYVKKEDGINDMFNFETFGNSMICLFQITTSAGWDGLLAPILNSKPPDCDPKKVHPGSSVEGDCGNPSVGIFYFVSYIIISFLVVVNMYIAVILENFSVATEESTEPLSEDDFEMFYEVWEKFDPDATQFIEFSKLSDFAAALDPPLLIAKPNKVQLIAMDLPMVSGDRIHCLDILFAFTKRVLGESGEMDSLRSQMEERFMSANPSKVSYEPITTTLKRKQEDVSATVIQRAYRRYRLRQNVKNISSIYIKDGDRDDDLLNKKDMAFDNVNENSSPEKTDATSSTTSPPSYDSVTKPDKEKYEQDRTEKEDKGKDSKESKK
For `CC[C@H](C)[C@H](NC(=O)[C@@H](NC(=O)[C@H](CCCCN)NC(=O)[C@H](CCCNC(=N)N)NC(=O)[C@@H]1CSSC[C@@H]2NC(=O)[C@H](C)NC(=O)[C@H](CCCNC(=N)N)NC(=O)[C@H](CCCCN)NC(=O)[C@H](CO)NC(=O)[C@H](CC(=O)O)NC(=O)[C@@H]3CSSC[C@H](NC(=O)[C@H](CC(=O)O)NC(=O)[C@H](CC(C)C)NC(=O)CNC(=O)[C@H](CCC(=O)O)NC(=O)[C@H](CSSC[C@H](NC(=O)[C@@H](N)Cc4ccc(O)cc4)C(=O)N[C@@H](CCC(N)=O)C(=O)N[C@@H](CCCCN)C(=O)N[C@@H](Cc4c[nH]c5ccccc45)C(=O)N[C@@H](CCSC)C(=O)N[C@@H](Cc4c[nH]c5ccccc45)C(=O)N[C@@H]([C@@H](C)O)C(=O)N3)NC2=O)C(=O)N[C@@H](CCCCN)C(=O)N[C@@H](CC(C)C)C(=O)N[C@@H](Cc2c[nH]c3ccccc23)C(=O)N1)[C@@H](C)CC)C(N)=O` [compound 115], the Nav1.4/Nav1.7 was found to be 10 and the Nav1.5/Nav1.7 turned out to be 4.

The target in the next assay is T1, hNav1.7. The experiment in a line: cell-based. Particulars: ratio of IonWorks Quattro IC50 values, Nav1.4 over Nav1.7.
Consider `CC[C@H](C)[C@H](NC(=O)[C@@H](NC(=O)[C@H](CCCCN)NC(=O)[C@H](CCCNC(=N)N)NC(=O)[C@@H]1CSSC[C@@H]2NC(=O)[C@H](C)NC(=O)[C@H](CCCNC(=N)N)NC(=O)[C@H](CCCCN)NC(=O)[C@H](CO)NC(=O)[C@H](CC(=O)O)NC(=O)[C@@H]3CSSC[C@H](NC(=O)[C@H](CC(=O)O)NC(=O)[C@H](CC(C)C)NC(=O)CNC(=O)[C@H](CCC(=O)O)NC(=O)[C@H](CSSC[C@H](NC(=O)[C@@H](N)Cc4ccc(O)cc4)C(=O)N[C@@H](CCC(N)=O)C(=O)N[C@@H](CCCCN)C(=O)N[C@@H](Cc4c[nH]c5ccccc45)C(=O)N[C@@H](CCSC)C(=O)N[C@@H](Cc4c[nH]c5ccccc45)C(=O)N[C@@H]([C@@H](C)O)C(=O)N3)NC2=O)C(=O)N[C@@H](CCCCN)C(=O)N[C@@H](CC(C)C)C(=O)N[C@@H](Cc2c[nH]c3ccccc23)C(=O)N1)[C@@H](C)CC)C(N)=O` [compound 115], for which the Nav1.4/Nav1.7 stood at 53.

Turning to `CC[C@H](C)[C@H](NC(=O)[C@@H](NC(=O)[C@H](CCCCN)NC(=O)[C@H](CCCNC(=N)N)NC(=O)[C@@H]1CSSC[C@@H]2NC(=O)[C@H](C)NC(=O)[C@H](CCCNC(=N)N)NC(=O)[C@H](CCCCN)NC(=O)[C@H](CO)NC(=O)[C@H](CC(=O)O)NC(=O)[C@@H]3CSSC[C@H](NC(=O)[C@H](CCCNC(N)=O)NC(=O)[C@H](CC(C)C)NC(=O)CNC(=O)[C@H](CCC(=O)O)NC(=O)[C@H](CSSC[C@H](NC(=O)[C@@H](N)Cc4ccc(O)cc4)C(=O)N[C@@H](CCC(N)=O)C(=O)N[C@@H](CCCCN)C(=O)N[C@@H](Cc4c[nH]c5ccccc45)C(=O)N[C@@H](CCSC)C(=O)N[C@@H](Cc4c[nH]c5ccccc45)C(=O)N[C@@H]([C@@H](C)O)C(=O)N3)NC2=O)C(=O)N[C@@H](CCCCN)C(=O)N[C@@H](CC(C)C)C(=O)N[C@@H](Cc2c[nH]c3ccccc23)C(=O)N1)[C@@H](C)CC)C(N)=O` [compound 122], the Nav1.4/Nav1.7 is 15.

As for `CCC[C@@H]1NC(=O)[C@H](CC(C)C)NC(=O)CNC(=O)[C@H](CCC(=O)O)NC(=O)[C@@H]2CSSC[C@H](NC(=O)[C@@H](N)Cc3ccc(O)cc3)C(=O)N[C@@H](CCC(N)=O)C(=O)N[C@@H](CCCCN)C(=O)N[C@@H](Cc3c[nH]c4ccccc34)C(=O)N[C@@H](CCSC)C(=O)N[C@@H](Cc3c[nH]c4ccccc34)C(=O)N[C@@H]([C@@H](C)O)C(=O)N[C@H]3CSSC[C@H](NC1=O)C(=O)N[C@@H](CCCCN)C(=O)N[C@@H](CC(C)C)C(=O)N[C@@H](Cc1c[nH]c4ccccc14)C(=O)N[C@H](C(=O)N[C@@H](CCCNC(=N)N)C(=O)N[C@@H](CCCCN)C(=O)N[C@H](C(=O)N[C@H](C(N)=O)[C@@H](C)CC)[C@@H](C)CC)CSSC[C@H](NC(=O)[C@H](C)NC(=O)[C@H](CCCNC(=N)N)NC(=O)[C@H](CCCCN)NC(=O)[C@H](CO)NC(=O)[C@H](CC(=O)O)NC3=O)C(=O)N2` [compound 123], the Nav1.4/Nav1.7 was found to be 19.

Regarding `CC[C@H](C)[C@H](NC(=O)[C@@H](NC(=O)[C@H](CCCCN)NC(=O)[C@H](CCCNC(=N)N)NC(=O)[C@@H]1CSSC[C@@H]2NC(=O)[C@H](C)NC(=O)[C@H](CCCNC(=N)N)NC(=O)[C@H](CCCCN)NC(=O)[C@H](CO)NC(=O)[C@H](CC(=O)O)NC(=O)[C@@H]3CSSC[C@H](NC(=O)[C@H](CO)NC(=O)[C@H](CC(C)C)NC(=O)CNC(=O)[C@H](CCC(=O)O)NC(=O)[C@H](CSSC[C@H](NC(=O)[C@@H](N)Cc4ccc(O)cc4)C(=O)N[C@@H](CCC(N)=O)C(=O)N[C@@H](CCCCN)C(=O)N[C@@H](Cc4c[nH]c5ccccc45)C(=O)N[C@@H](CCSC)C(=O)N[C@@H](Cc4c[nH]c5ccccc45)C(=O)N[C@@H]([C@@H](C)O)C(=O)N3)NC2=O)C(=O)N[C@@H](CCCCN)C(=O)N[C@@H](CC(C)C)C(=O)N[C@@H](Cc2c[nH]c3ccccc23)C(=O)N1)[C@@H](C)CC)C(N)=O` [compound 125], the Nav1.4/Nav1.7 is on record as 17.

With `CC[C@H](C)[C@H](NC(=O)[C@H](CCC(=O)O)NC(=O)[C@H](CCCCN)NC(=O)[C@H](CCCNC(=N)N)NC(=O)[C@@H]1CSSC[C@@H]2NC(=O)[C@H](C)NC(=O)[C@H](CCCNC(=N)N)NC(=O)[C@H](CCCCN)NC(=O)[C@H](CO)NC(=O)[C@H](CC(=O)O)NC(=O)[C@@H]3CSSC[C@H](NC(=O)[C@H](CCC(=O)O)NC(=O)[C@H](CC(C)C)NC(=O)CNC(=O)[C@H](CCC(=O)O)NC(=O)[C@H](CSSC[C@H](NC(=O)[C@@H](N)Cc4ccc(O)cc4)C(=O)N[C@@H](CCC(N)=O)C(=O)N[C@@H](CCCCN)C(=O)N[C@@H](Cc4c[nH]c5ccccc45)C(=O)N[C@@H](CCSC)C(=O)N[C@@H](Cc4c[nH]c5ccccc45)C(=O)N[C@@H]([C@@H](C)O)C(=O)N3)NC2=O)C(=O)N[C@@H](CCCCN)C(=O)N[C@@H](CC(C)C)C(=O)N[C@@H](Cc2c[nH]c3ccccc23)C(=O)N1)C(N)=O` [compound 126], the Nav1.4/Nav1.7 was 5 and 3.

As for `CC[C@H](C)[C@H](NC(=O)[C@H](Cc1ccc(C(=O)O)cc1)NC(=O)[C@H](CCCCN)NC(=O)[C@H](CCCNC(=N)N)NC(=O)[C@@H]1CSSC[C@@H]2NC(=O)[C@H](C)NC(=O)[C@H](CCCNC(=N)N)NC(=O)[C@H](CCCCN)NC(=O)[C@H](CO)NC(=O)[C@H](CC(=O)O)NC(=O)[C@@H]3CSSC[C@H](NC(=O)[C@H](CCC(=O)O)NC(=O)[C@H](CC(C)C)NC(=O)CNC(=O)[C@H](CCC(=O)O)NC(=O)[C@H](CSSC[C@H](NC(=O)[C@@H](N)Cc4ccc(O)cc4)C(=O)N[C@@H](CCC(N)=O)C(=O)N[C@@H](CCCCN)C(=O)N[C@@H](Cc4c[nH]c5ccccc45)C(=O)N[C@@H](CCSC)C(=O)N[C@@H](Cc4c[nH]c5ccccc45)C(=O)N[C@@H]([C@@H](C)O)C(=O)N3)NC2=O)C(=O)N[C@@H](CCCCN)C(=O)N[C@@H](CC(C)C)C(=O)N[C@@H](Cc2c[nH]c3ccccc23)C(=O)N1)C(N)=O` [compound 127], the Nav1.4/Nav1.7 was determined as 2.

Take `CC[C@H](C)[C@H](NC(=O)[C@H](CC(=O)O)NC(=O)[C@H](CCCCN)NC(=O)[C@H](CCCNC(=N)N)NC(=O)[C@@H]1CSSC[C@@H]2NC(=O)[C@H](C)NC(=O)[C@H](CCCNC(=N)N)NC(=O)[C@H](CCCCN)NC(=O)[C@H](CO)NC(=O)[C@H](CC(=O)O)NC(=O)[C@@H]3CSSC[C@H](NC(=O)[C@H](CCC(=O)O)NC(=O)[C@H](CC(C)C)NC(=O)CNC(=O)[C@H](CCC(=O)O)NC(=O)[C@H](CSSC[C@H](NC(=O)[C@@H](N)Cc4ccc(O)cc4)C(=O)N[C@@H](CCC(N)=O)C(=O)N[C@@H](CCCCN)C(=O)N[C@@H](Cc4c[nH]c5ccccc45)C(=O)N[C@@H](CCSC)C(=O)N[C@@H](Cc4c[nH]c5ccccc45)C(=O)N[C@@H]([C@@H](C)O)C(=O)N3)NC2=O)C(=O)N[C@@H](CCCCN)C(=O)N[C@@H](CC(C)C)C(=O)N[C@@H](Cc2c[nH]c3ccccc23)C(=O)N1)C(N)=O` [compound 128]: the Nav1.4/Nav1.7 turned out to be 4.

Regarding `CC[C@H](C)[C@H](NC(=O)[C@H](CC(C)C)NC(=O)[C@H](CCCCN)NC(=O)[C@H](CCCNC(=N)N)NC(=O)[C@@H]1CSSC[C@@H]2NC(=O)[C@H](C)NC(=O)[C@H](CCCNC(=N)N)NC(=O)[C@H](CCCCN)NC(=O)[C@H](CO)NC(=O)[C@H](CC(=O)O)NC(=O)[C@@H]3CSSC[C@H](NC(=O)[C@H](CCC(=O)O)NC(=O)[C@H](CC(C)C)NC(=O)CNC(=O)[C@H](CCC(=O)O)NC(=O)[C@H](CSSC[C@H](NC(=O)[C@@H](N)Cc4ccc(O)cc4)C(=O)N[C@@H](CCC(N)=O)C(=O)N[C@@H](CCCCN)C(=O)N[C@@H](Cc4c[nH]c5ccccc45)C(=O)N[C@@H](CCSC)C(=O)N[C@@H](Cc4c[nH]c5ccccc45)C(=O)N[C@@H]([C@@H](C)O)C(=O)N3)NC2=O)C(=O)N[C@@H](CCCCN)C(=O)N[C@@H](CC(C)C)C(=O)N[C@@H](Cc2c[nH]c3ccccc23)C(=O)N1)C(N)=O` [compound 132], the Nav1.4/Nav1.7 is recorded as 12.

Staying with this assay, now noted: ratio of IonWorks Quattro IC50 values; Table 8.
As for `CC[C@H](C)[C@H](NC(=O)[C@H](Cc1ccc(O)cc1)NC(=O)[C@H](CCCCN)NC(=O)[C@H](CCCNC(=N)N)NC(=O)[C@@H]1CSSC[C@@H]2NC(=O)[C@H](C)NC(=O)[C@H](CCCNC(=N)N)NC(=O)[C@H](CCCCN)NC(=O)[C@H](CO)NC(=O)[C@H](CC(=O)O)NC(=O)[C@@H]3CSSC[C@H](NC(=O)[C@H](CCC(=O)O)NC(=O)[C@H](CC(C)C)NC(=O)CNC(=O)[C@H](CCC(=O)O)NC(=O)[C@H](CSSC[C@H](NC(=O)[C@@H](N)Cc4ccc(O)cc4)C(=O)N[C@@H](CCC(N)=O)C(=O)N[C@@H](CCCCN)C(=O)N[C@@H](Cc4c[nH]c5ccccc45)C(=O)N[C@@H](CCSC)C(=O)N[C@@H](CC(N)=O)C(=O)N[C@@H]([C@@H](C)O)C(=O)N3)NC2=O)C(=O)N[C@@H](CCCCN)C(=O)N[C@@H](CC(C)C)C(=O)N[C@@H](Cc2c[nH]c3ccccc23)C(=O)N1)C(N)=O` [compound 215], the Nav1.4/Nav1.7 is 1.

On to `CC[C@H](C)[C@H](NC(=O)[C@H](Cc1ccc(O)cc1)NC(=O)[C@H](CCCCN)NC(=O)[C@H](CCCNC(=N)N)NC(=O)[C@@H]1CSSC[C@@H]2NC(=O)[C@H](C)NC(=O)[C@H](CCCNC(=N)N)NC(=O)[C@H](CCCCN)NC(=O)[C@H](CO)NC(=O)[C@H](CC(=O)O)NC(=O)[C@@H]3CSSC[C@H](NC(=O)[C@H](CCCNC(=N)N)NC(=O)[C@H](CC(C)C)NC(=O)CNC(=O)[C@H](CCC(=O)O)NC(=O)[C@H](CSSC[C@H](NC(=O)[C@@H](N)CCC(=O)O)C(=O)N[C@@H](CCC(N)=O)C(=O)N[C@@H](CCCCN)C(=O)N[C@@H](Cc4c[nH]c5ccccc45)C(=O)N[C@@H](CCSC)C(=O)N[C@@H](Cc4c[nH]c5ccccc45)C(=O)N[C@@H]([C@@H](C)O)C(=O)N3)NC2=O)C(=O)N[C@@H](CCCCN)C(=O)N[C@@H](CC(C)C)C(=O)N[C@@H](Cc2c[nH]c3ccccc23)C(=O)N1)C(N)=O` [compound 278], for which the Nav1.4/Nav1.7 was 16.
